Columns and labels:
curly dock (RUMCR) = test: Test 3 field trial, emerged weeds before corn planting; assay type: in vivo, Rumex crispus; settings: Cpd 2 100, glyphosate 1540, paraquat 1150 g a.i./ha, alone or combined
Excerpt: Corn seeds (hybrid ‘Pioneer 33J56’) were planted in early spring season, 3.8 cm deep in a silt loam soil having 2.4% organic matter and a pH of 6. Plots were 6.1 m long by 2.7 m wide with rows spaced 91.4 cm apart. The field was managed using no-till practices. […] Compound 2 and paraquat treatments, alone and in combination, also included a surfactant. Glyphosate, alone and with Compound 2, included ammonium sulfate in the treatment mixture. […] The effects on the weeds in the treated plots and untreated control plots were recorded 30, 42, 46 and 68 days after application. Most of the weed species could not be evaluated at every timing. Corn response was not evaluated because the growth was highly variable depending on the efficacy of the weed control treatments. […] Results are the means of the three replicates.

wild radish (RAPRA) = test: Test 7 field trial, preemergence; assay type: in vivo, Raphanus raphanistrum
Protocol: Plots were 7.6 m long by 3.0 m wide with rows spaced 76 cm apart. Seeds were spaced 15 cm apart within the rows. The field was managed using conventional tillage practices. […] Wild radish was evaluated 14 and 28 days after application. […] Results are the means of the three replicates.

common chickweed (STEME) = test: Test 9 field trial, emerged weeds before corn planting; assay type: in vivo, Stellaria media; settings: g a.i./ha: Cpd 2 100, Glyphosate 1540, Paraquat 1150
Protocol: Corn seeds (hybrid ‘Pioneer 34M91 RR’) were planted in mid spring season, about 3.8 cm deep in a silty clay loam soil having a pH of 6.7. Plots were 9.1 m long by 3.0 m. The field was managed using no-till practices. […] Compound 2 and paraquat treatments, alone and in combination, also included a surfactant. Glyphosate, alone and with Compound 2, included ammonium sulfate in the treatment mixture. […] The effects on the weeds in the treated plots and untreated control plots were recorded 7, 14, 23, 30 and 57 days after application. Most of the weed species could not be evaluated at every timing. Corn response was only evaluated 57 days after application. […] Results are the means of the three replicates.

[1] = system: broadleaf buttonweed (BOILF); test: Test 12 field trial, preemergence; assay type: in vivo, Borreria latifolia; design: scale not given here; settings: Cpd 2 or Cpd 1 62 g a.i./ha, Diuron 2000 g a.i./ha
Excerpt: In early-mid spring season, corn seeds (hybrid ‘Pioneer 3041’) were planted 5 cm deep and sugarcane nodes (variety RB-72.454) were planted 10 cm deep in separate plots in a clay soil having 2.6% organic matter and a pH of 5.6. Plots were 24 m long by 1.5 m wide with rows spaced 80 cm (corn) or 140 cm (sugarcane) apart. Corn seeds were spaced 15 cm apart and sugarcane nodes were spaced 10 cm apart within the rows. At the same time, weed seeds were broadcast over the surface of separate plots without a crop, one weed species per plot. The weed plots were rotary tilled to incorporate the weed seeds to a variety of depths. The field was managed using conventional tillage practices.

giant foxtail (SETFA) = test: Test 14 field trial, preemergence, growth as percent of control; assay type: in vivo, Setaria faberi
Excerpt: Corn seeds (hybrid ‘Pioneer 31G96 RR’) were planted in mid spring season, 3.8 cm deep in a clay loam soil having 2% organic matter and a pH of 6.6. Plots were 6.1 m long by 3.0 m wide with rows spaced 76 cm apart. Seeds were spaced 15 cm apart within the rows. The field was managed using conventional tillage practices. […] Yellow nutsedge was only evaluated 19 and 28 days after application, and ivyleaf morningglory could only be evaluated 28 days after application. […] Results are the means of the three replicates. This growth inhibition data was converted to results in the form of “plant growth as a percent of control plant growth” using the calculation “100 minus growth inhibition”. […] For “growth as a percent of control” data, Colby's Equation calculates the expected additive effect of herbicidal mixtures having two active ingredients as follows:
Ga+b=GaGb/100 • wherein Ga+b is the growth as a percent of control of plants treated with the mixture expected from additive contribution of the individual components, • Ga is the observed growth as a percent of control of plants treated with the first active ingredient at the same use rate as in the mixture, and • Gb is the observed growth as a percent of control of plants treated with the second active ingredient at the same use rate as in the mixture. For mixtures having three active ingredients, Colby's Equation to calculate the expected additive effect of herbicidal mixtures is as follows:
Ga+b+c=GaGbGc/10,000 • wherein Ga and Gb are as defined above and • Ga+b+c is the growth as a percent of control of plants treated with the mixture expected from additive contribution of the individual components, and • Gc is the observed growth as a percent of control of plants treated with the third active ingredient at the same use rate as in the mixture. When these two forms of Colby's Equation are used, if the observed effects on weeds are less than the expected values, the mixture is synergistic.

winter wheat (TRZAW) = test: Test 20 growth chamber, postemergence; assay type: in vivo, Triticum aestivum; settings: 25 DAA
Protocol: A test was conducted to evaluate the effects on winter barley (HORVW, Hordeum vulgare L.) and winter wheat (TRZAW, Triticum aestivum L.) of mixtures of Compound 2 with the commercial herbicides (2,4-dichlorophenoxy)acetic acid (2,4-D) and (4-chloro-2-methylphenoxy)acetic acid (MCPA), auxin mimics. […] Plants were treated postemergence at the 2-leaf growth stage, and each treatment was replicated a total of four times (three times in the loam/sand blend and one time in RediEarth). […] Plants were watered as needed. […] Results are the means of the four replicates.

barley (HORVX) = test: Test 30 growth chamber, postemergence; assay type: in vivo, Hordeum vulgare
Protocol: A growth chamber test was conducted to evaluate the effects on the plant species wheat (TRZAW, Triticum aestivum L.) and barley (HORVX, Hordeum vulgare L.) with mixtures of Compound 1 and Compound 2 with glycerol. Wheat and barley seeds were planted in a sandy loam soil having 0.9% organic matter and a pH of 6.3. […] Wheat and barley plants were treated postemergence at the two leaf growth stage for Compound 1 and at the three leaf growth stage for Compound 2. Each treatment was replicated one time. […] Plants were watered as needed. […] Colby's Equation was used to determine herbicidal effects expected from the mixtures.

| SMILES | RUMCR Obs (curly dock (RUMCR); 30 DAA) | RUMCR Obs (curly dock (RUMCR); 42 DAA) | RUMCR Obs (curly dock (RUMCR); 46 DAA) | RUMCR Obs (curly dock (RUMCR); 68 DAA) | STEME Obs (common chickweed (STEME); 7 DAA) | STEME Obs (common chickweed (STEME); 14 DAA) | STEME Obs (common chickweed (STEME); 23 DAA) | STEME Obs (common chickweed (STEME); 30 DAA) | STEME Obs (common chickweed (STEME); 57 DAA) | BOILF Obs ([1]; 15 DAA) | BOILF Obs ([1]; 29 DAA) | BOILF Obs ([1]; 48 DAA) | BOILF Obs ([1]; 61 DAA) | also measured |
| --- | --- | --- | --- | --- | --- | --- | --- | --- | --- | --- | --- | --- | --- | --- |
| COC(=O)c1nc(C2CC2)nc(N)c1Cl [Compound 2, methyl 6-amino-5-chloro-2-cyclopropyl-4-pyrimidinecarboxylate] | 62% | 37% | 54% | 67% | 22% | 13% | 3% | 0% | 0% | 70 | 60 | 95 | 100 | RAPRA Obs (wild radish (RAPRA); 14 DAA, 125 g a.i./ha): 35%; RAPRA Obs (wild radish (RAPRA); 14 DAA, 250 g a.i./ha): 53%; RAPRA Obs (wild radish (RAPRA); 14 DAA, 500 g a.i./ha): 73%; RAPRA Obs (wild radish (RAPRA); 28 DAA, 250 g a.i./ha): 38%; RAPRA Obs (wild radish (RAPRA); 28 DAA, 500 g a.i./ha): 58%; Obs growth % of control (giant foxtail (SETFA); 19 DAA, 75 g a.i./ha): 58%; Obs growth % of control (giant foxtail (SETFA); 19 DAA, 100 g a.i./ha): 48%; Obs growth % of control (giant foxtail (SETFA); 28 DAA, 75 g a.i./ha): 68%; Obs growth % of control (giant foxtail (SETFA); 28 DAA, 100 g a.i./ha): 67%; Obs growth % of control (giant foxtail (SETFA); 56 DAA, 75 g a.i./ha): 92%; Obs growth % of control (giant foxtail (SETFA); 56 DAA, 100 g a.i./ha): 97%; Postemergence TRZAW Obs (winter wheat (TRZAW); Cpd 2 alone 4 g a.i./ha): 23; Postemergence TRZAW Obs (winter wheat (TRZAW); Cpd 2 alone 8 g a.i./ha): 28; Postemergence TRZAW Obs (winter wheat (TRZAW); Cpd 2 alone 16 g a.i./ha): 35; HORVX Obs (barley (HORVX); 17 DAA, Cpd 2 1 g a.i./ha): 25%; HORVX Obs (barley (HORVX); 17 DAA, Cpd 2 4 g a.i./ha): 30%; HORVX Obs (barley (HORVX); 17 DAA, Cpd 2 16 g a.i./ha): 35% |
| O=C(O)CNCP(=O)(O)O [Glyphosate] | 75% | 61% | 82% | 93% | 42% | 84% | 93% | 100% | 99% |  |  |  |  |  |
| CCc1cccc(C)c1N(C(=O)CCl)[C@@H](C)COC [S-Metolachlor, S-metolachlor, reference compound] |  |  |  |  |  |  |  |  |  |  |  |  |  | RAPRA Obs (wild radish (RAPRA); 14 DAA, 1000 g a.i./ha): 40%; RAPRA Obs (wild radish (RAPRA); 28 DAA, 1000 g a.i./ha): 15%; Obs growth % of control (giant foxtail (SETFA); 19 DAA, 1870 g a.i./ha): 7%; Obs growth % of control (giant foxtail (SETFA); 28 DAA, 1870 g a.i./ha): 5%; Obs growth % of control (giant foxtail (SETFA); 56 DAA, 1870 g a.i./ha): 1% |
| O=C(O)COc1ccc(Cl)cc1Cl [2,4-D, (2,4-dichlorophenoxy)acetic acid] |  |  |  |  |  |  |  |  |  |  |  |  |  | Postemergence TRZAW Obs (winter wheat (TRZAW); 2,4-D or MCPA alone 250 g a.i./ha): 18 |
| Nc1nc(C2CC2)nc(C(=O)O)c1Cl [Compound 1, 6-amino-5-chloro-2-cyclopropyl-4-pyrimidinecarboxylic acid] |  |  |  |  |  |  |  |  |  | 70 | 60 | 95 | 95 | HORVX Obs (barley (HORVX); 18 DAA, Cpd 1 1 g a.i./ha): 0%; HORVX Obs (barley (HORVX); 18 DAA, Cpd 1 4 g a.i./ha): 20%; HORVX Obs (barley (HORVX); 18 DAA, Cpd 1 16 g a.i./ha): 40% |

From US20100285959A1, “HERBICIDAL MIXTURES” (priority 2006, published 2010)
